Measurements from ChEMBL document CHEMBL1201862, “PubChem BioAssay data set” (2004).
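Assay format: 96-well plates, 48-hour exposure. At the GI50, growth is halved.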 Active and inactive are the calls of the source. Cut-off read from the data, not from the text of the source: active = GI50 up to about 1.1 µM and inactive = higher.

Tests used:
Assay in all cases: NCI-60 cell line screen, 48 h
[1] = system: NCI-H23
[2] = system: PC-3
[3] = system: COLO 205
[4] = system: HCC 2998
[5] = system: OVCAR-3
[6] = system: OVCAR-8
[7] = system: UACC-257
[8] = system: DU-145
[9] = system: A498
[10] = system: SF-295
[11] = system: MDA-MB-231
[12] = system: NCI/ADR-RES
[13] = system: M14
[14] = system: MCF7
[15] = system: MOLT-4
[16] = system: HT-29
[17] = system: SW-620
[18] = system: NCI-H460
[19] = system: ACHN
[20] = system: SNB-19

Row | Compound | GI50 [1] | GI50 [2] | GI50 [3] | GI50 [4] | GI50 [5] | GI50 [6] | GI50 [7] | GI50 [8] | GI50 [9] | GI50 [10] | GI50 [11] | GI50 [12] | GI50 [13] | GI50 [14] | GI50 [15] | GI50 [16] | GI50 [17] | GI50 [18] | GI50 [19] | GI50 [20]
1 | CC1(C)Oc2ccc3c(=O)cc(-c4cccs4)oc3c2C1C(=O)O (stereo not given) | > 100 µM (inactive) | > 100 µM (inactive) | > 100 µM (inactive) | > 100 µM (inactive) | > 100 µM (inactive) | > 100 µM (inactive) | > 100 µM (inactive) | > 100 µM (inactive) | > 100 µM (inactive) | > 100 µM (inactive) | > 100 µM (inactive) | > 100 µM (inactive) | > 100 µM (inactive) | > 100 µM (inactive) | > 100 µM (inactive) | > 100 µM (inactive) |  |  |  | 
2 | C1CNCCN2CCCNCCN(C1)CC2 | > 100 µM (inactive) | > 100 µM (inactive) | > 100 µM (inactive) |  | > 100 µM (inactive) | > 100 µM (inactive) | > 100 µM (inactive) | > 100 µM (inactive) | > 100 µM (inactive) | > 100 µM (inactive) | > 100 µM (inactive) | > 100 µM (inactive) | > 100 µM (inactive) | > 100 µM (inactive) | > 100 µM (inactive) | > 100 µM (inactive) | > 100 µM (inactive) | > 100 µM (inactive) | > 100 µM (inactive) | > 100 µM (inactive)
3 | COc1ccc(-n2c(N)c(C#N)c(C#N)c2-c2cccc([N+](=O)[O-])c2)cc1 | > 100 µM (inactive) | 33.5 µM (inactive) | > 100 µM (inactive) | > 100 µM (inactive) | > 100 µM (inactive) | 88.9 µM (inactive) | > 100 µM (inactive) | 43.3 µM (inactive) | > 100 µM (inactive) | 42.5 µM (inactive) | 67 µM (inactive) | > 100 µM (inactive) | > 100 µM (inactive) | 61.5 µM (inactive) | 2.46 µM (inactive) | 25.3 µM (inactive) | > 100 µM (inactive) |  | 91 µM (inactive) | 49.8 µM (inactive)
4 | Cc1ccc2cc3c(ccc4ccccc43)c3c2c1CC3 [3-METHYLCHOLANTHRENE] | > 100 µM (inactive) | > 100 µM (inactive) | > 100 µM (inactive) | > 100 µM (inactive) | > 100 µM (inactive) | > 100 µM (inactive) | > 100 µM (inactive) | > 100 µM (inactive) |  | > 100 µM (inactive) | > 100 µM (inactive) | > 100 µM (inactive) | > 100 µM (inactive) | 0.159 µM (active) | > 100 µM (inactive) | > 100 µM (inactive) | > 100 µM (inactive) | > 100 µM (inactive) | > 100 µM (inactive) | > 100 µM (inactive)
5 | O=c1c(Br)c(-c2ccccc2)[s+]([O-])c2ccccc12 (stereo not given) | 16 µM (inactive) | 7.78 µM (inactive) | 1.89 µM (inactive) | 14.6 µM (inactive) | 10.4 µM (inactive) | 4.6 µM (inactive) | 12.9 µM (inactive) | 14.2 µM (inactive) |  | 17.9 µM (inactive) | 14.8 µM (inactive) | 16.7 µM (inactive) | 12.9 µM (inactive) | 2.96 µM (inactive) | 1.22 µM (inactive) | 13.2 µM (inactive) | 16.7 µM (inactive) | 17.9 µM (inactive) | 2.52 µM (inactive) | 18.2 µM (inactive)
6 | Oc1ccc(Cc2cc(Cl)cc(Cl)c2O)cc1Cl | 16.3 µM (inactive) | 17.7 µM (inactive) | 19 µM (inactive) |  | 18.7 µM (inactive) | 19 µM (inactive) | 15.9 µM (inactive) | 10.1 µM (inactive) | 19.5 µM (inactive) | 19 µM (inactive) | 18.6 µM (inactive) | 18.3 µM (inactive) | 15.7 µM (inactive) | 18.1 µM (inactive) | 20 µM (inactive) | 20.1 µM (inactive) | 16.6 µM (inactive) | 17.8 µM (inactive) | 17.4 µM (inactive) | 16.9 µM (inactive)
7 | CCC1(C)NC(c2cnccn2)=NN1c1ccc(Cl)cc1 (stereo not given) | > 100 µM (inactive) | 65.9 µM (inactive) | > 100 µM (inactive) |  | 39.8 µM (inactive) | > 100 µM (inactive) | 21.9 µM (inactive) | 65.2 µM (inactive) | > 100 µM (inactive) | > 100 µM (inactive) | > 100 µM (inactive) | > 100 µM (inactive) | > 100 µM (inactive) | 45.4 µM (inactive) | 32.7 µM (inactive) | 88.1 µM (inactive) | 45.3 µM (inactive) | 81.7 µM (inactive) | > 100 µM (inactive) | > 100 µM (inactive)
8 | N#Cc1nc(C2CC2)oc1N | > 100 µM (inactive) | > 100 µM (inactive) | > 100 µM (inactive) | > 100 µM (inactive) | > 100 µM (inactive) | > 100 µM (inactive) | > 100 µM (inactive) | > 100 µM (inactive) |  | > 100 µM (inactive) | > 100 µM (inactive) | > 100 µM (inactive) | > 100 µM (inactive) | > 100 µM (inactive) | > 100 µM (inactive) | > 100 µM (inactive) | > 100 µM (inactive) |  | > 100 µM (inactive) | > 100 µM (inactive)
9 | COc1cc(O)c2c(O)c3c(c4c2c1[C@]1(C4)C(C)=CCCC1(C)C)[C@H](O)[C@@]1(O)CC(O)=C(C(N)=O)C(=O)[C@@]1(O)C3=O | 0.164 µM (active) | 0.119 µM (active) | 0.108 µM (active) |  | 0.228 µM (active) | 0.113 µM (active) | 0.231 µM (active) | 0.359 µM (active) | 0.163 µM (active) | 0.322 µM (active) | 0.259 µM (active) | 0.345 µM (active) | 0.126 µM (active) | 0.164 µM (active) | 0.333 µM (active) | 0.0615 µM (active) | 0.0619 µM (active) | 0.0435 µM (active) | 0.209 µM (active) | 0.42 µM (active)
10 | Cc1cc(C)c(S(=O)(=O)N(CCCN)OCCCON(CCCN)S(=O)(=O)c2c(C)cc(C)cc2C)c(C)c1 | 2.18 µM (inactive) | 1.82 µM (inactive) | 1.78 µM (inactive) |  | 2.03 µM (inactive) | 3.68 µM (inactive) | 1.82 µM (inactive) | 1.71 µM (inactive) | 3.38 µM (inactive) | 7.66 µM (inactive) | 1.77 µM (inactive) | 18.9 µM (inactive) | 1.75 µM (inactive) | 1.82 µM (inactive) | 2.03 µM (inactive) | 1.67 µM (inactive) | 2.49 µM (inactive) | 1.67 µM (inactive) | 15.3 µM (inactive) | 1.75 µM (inactive)
11 | O=C1/C(=C/c2cccc(Cl)c2)CCCc2ccccc21 | 16.1 µM (inactive) | 18.3 µM (inactive) | 20.5 µM (inactive) | 17.2 µM (inactive) | 23.7 µM (inactive) | 18.3 µM (inactive) | 19.1 µM (inactive) | 19.2 µM (inactive) |  | 17.5 µM (inactive) | 18.2 µM (inactive) | 18.4 µM (inactive) | 16.3 µM (inactive) | 6.03 µM (inactive) | 15.2 µM (inactive) | 15.8 µM (inactive) | 16.9 µM (inactive) | 15.7 µM (inactive) | 16.1 µM (inactive) | 14.9 µM (inactive)
